Experimental data taken from the NIST ThermoML archive (doi:10.1016/j.jct.2012.03.015).
± gives the expanded uncertainty stated by the source.

Assay: activity coefficient (dimensionless); of the first substance listed, at infinite dilution; xn = mol fraction of the nth substance listed
Settings: 101 kPa, Liquid, Chromatography, x1 = 0

| SMILES | activity coefficient (318.15 K) | activity coefficient (328.15 K) | activity coefficient (338.15 K) | activity coefficient (348.15 K) | activity coefficient (358.15 K) | activity coefficient (368.15 K) |
| --- | --- | --- | --- | --- | --- | --- |
| Cc1ccccc1C [1,2-dimethylbenzene] + COCC[N+]1(C)CCCC1.O=S(=O)([N-]S(=O)(=O)C(F)(F)F)C(F)(F)F | 1.94 ± 0.13 | 1.96 ± 0.13 | 1.97 ± 0.13 | 1.98 ± 0.13 | 1.99 ± 0.14 | 2 ± 0.14 |
| Cc1cccc(C)c1 [1,3-dimethylbenzene] + COCC[N+]1(C)CCCC1.O=S(=O)([N-]S(=O)(=O)C(F)(F)F)C(F)(F)F | 2.14 ± 0.15 | 2.16 ± 0.15 | 2.17 ± 0.15 | 2.19 ± 0.15 | 2.2 ± 0.15 | 2.22 ± 0.15 |
| Cc1ccc(C)cc1 [1,4-dimethylbenzene] + COCC[N+]1(C)CCCC1.O=S(=O)([N-]S(=O)(=O)C(F)(F)F)C(F)(F)F | 2.15 ± 0.15 | 2.17 ± 0.15 | 2.18 ± 0.15 | 2.2 ± 0.15 | 2.21 ± 0.15 | 2.23 ± 0.15 |
| C1COCCO1 [1,4-dioxane] + COCC[N+]1(C)CCCC1.O=S(=O)([N-]S(=O)(=O)C(F)(F)F)C(F)(F)F | 0.66 ± 0.05 | 0.68 ± 0.05 | 0.7 ± 0.05 | 0.72 ± 0.05 | 0.74 ± 0.05 | 0.76 ± 0.05 |
| C=CCCCCCCCC [1-decene] + COCC[N+]1(C)CCCC1.O=S(=O)([N-]S(=O)(=O)C(F)(F)F)C(F)(F)F | 41.7 ± 2.9 | 39 ± 2.7 | 36.4 ± 2.5 | 33.8 ± 2.3 | 31.7 ± 2.2 | 29.8 ± 2 |
| C=CCCCCC [1-heptene] + COCC[N+]1(C)CCCC1.O=S(=O)([N-]S(=O)(=O)C(F)(F)F)C(F)(F)F | 14.1 ± 1 | 13.4 ± 0.9 | 12.9 ± 0.9 | 12.3 ± 0.8 | 11.8 ± 0.8 | 11.4 ± 0.8 |
| C#CCCCCC [1-heptyne] + COCC[N+]1(C)CCCC1.O=S(=O)([N-]S(=O)(=O)C(F)(F)F)C(F)(F)F | 4.75 ± 0.32 | 4.71 ± 0.32 | 4.66 ± 0.32 | 4.62 ± 0.31 | 4.58 ± 0.31 | 4.55 ± 0.31 |
| C#CCCCC [1-hexyne] + COCC[N+]1(C)CCCC1.O=S(=O)([N-]S(=O)(=O)C(F)(F)F)C(F)(F)F | 3.29 ± 0.22 | 3.29 ± 0.22 | 3.28 ± 0.22 | 3.28 ± 0.22 | 3.28 ± 0.22 | 3.27 ± 0.22 |
| CCC[N+](=O)[O-] [1-nitropropane] + COCC[N+]1(C)CCCC1.O=S(=O)([N-]S(=O)(=O)C(F)(F)F)C(F)(F)F | 0.74 ± 0.05 | 0.742 ± 0.049 | 0.743 ± 0.049 | 0.744 ± 0.049 | 0.746 ± 0.049 | 0.747 ± 0.049 |
| C#CCCCCCC [1-octyne] + COCC[N+]1(C)CCCC1.O=S(=O)([N-]S(=O)(=O)C(F)(F)F)C(F)(F)F | 6.85 ± 0.47 | 6.73 ± 0.46 | 6.58 ± 0.45 | 6.48 ± 0.44 | 6.37 ± 0.43 | 6.27 ± 0.43 |
| C=CCCC [1-pentene] + COCC[N+]1(C)CCCC1.O=S(=O)([N-]S(=O)(=O)C(F)(F)F)C(F)(F)F | 6.65 ± 0.45 | 6.5 ± 0.44 | 6.35 ± 0.43 | 6.17 ± 0.42 | 6.07 ± 0.41 | 5.91 ± 0.4 |
| CC(C)CC(C)(C)C [2,2,4-trimethylpentane] + COCC[N+]1(C)CCCC1.O=S(=O)([N-]S(=O)(=O)C(F)(F)F)C(F)(F)F | 26.9 ± 1.8 | 25.1 ± 1.7 | 23.7 ± 1.6 | 22.3 ± 1.5 | 21.2 ± 1.4 | 20 ± 1.4 |
| CCC(C)(C)C [2,2-dimethylbutane] + COCC[N+]1(C)CCCC1.O=S(=O)([N-]S(=O)(=O)C(F)(F)F)C(F)(F)F | 15.1 ± 1 | 14.4 ± 1 | 13.7 ± 0.9 | 13.1 ± 0.9 | 12.6 ± 0.9 | 12 ± 0.8 |
| CCOC(C)(C)C [2-ethoxy-2-methylpropane] + COCC[N+]1(C)CCCC1.O=S(=O)([N-]S(=O)(=O)C(F)(F)F)C(F)(F)F | 6.31 ± 0.43 | 6.19 ± 0.42 | 6.12 ± 0.42 | 6.03 ± 0.41 | 5.94 ± 0.4 | 5.85 ± 0.4 |
| CCC(C)(C)OC [2-methoxy-2-methylbutane] + COCC[N+]1(C)CCCC1.O=S(=O)([N-]S(=O)(=O)C(F)(F)F)C(F)(F)F | 4.08 ± 0.28 | 4.06 ± 0.28 | 4.05 ± 0.28 | 4.03 ± 0.27 | 4.01 ± 0.27 | 4 ± 0.27 |
| COC(C)(C)C [2-methoxy-2-methylpropane] + COCC[N+]1(C)CCCC1.O=S(=O)([N-]S(=O)(=O)C(F)(F)F)C(F)(F)F | 2.76 ± 0.19 | 2.79 ± 0.19 | 2.81 ± 0.19 | 2.84 ± 0.19 | 2.86 ± 0.19 | 2.89 ± 0.2 |

| SMILES | activity coefficient (318.15 K) | activity coefficient (328.15 K) | activity coefficient (338.15 K) | activity coefficient (348.15 K) | activity coefficient (358.15 K) | activity coefficient (368.15 K) |
| --- | --- | --- | --- | --- | --- | --- |
| CC(C)CO [2-methyl-1-propanol] + COCC[N+]1(C)CCCC1.O=S(=O)([N-]S(=O)(=O)C(F)(F)F)C(F)(F)F | 2.76 ± 0.19 | 2.46 ± 0.17 | 2.2 ± 0.15 | 2.01 ± 0.14 | 1.84 ± 0.12 | 1.7 ± 0.11 |
| CC(C)(C)O [2-methylpropan-2-ol] + COCC[N+]1(C)CCCC1.O=S(=O)([N-]S(=O)(=O)C(F)(F)F)C(F)(F)F | 1.92 ± 0.13 | 1.79 ± 0.12 | 1.67 ± 0.11 | 1.56 ± 0.1 | 1.48 ± 0.1 | 1.4 ± 0.09 |
| CCC(C)CC [3-methylpentane] + COCC[N+]1(C)CCCC1.O=S(=O)([N-]S(=O)(=O)C(F)(F)F)C(F)(F)F | 16.6 ± 1.1 | 15.6 ± 1.1 | 14.8 ± 1 | 14.1 ± 1 | 13.5 ± 0.9 | 12.8 ± 0.9 |
| C=C(C)c1ccccc1 [(1-methylethenyl)benzene] + COCC[N+]1(C)CCCC1.O=S(=O)([N-]S(=O)(=O)C(F)(F)F)C(F)(F)F | 1.87 ± 0.13 | 1.93 ± 0.13 | 1.98 ± 0.13 | 2.03 ± 0.14 | 2.08 ± 0.14 | 2.12 ± 0.14 |
| CC(C)=O [acetone] + COCC[N+]1(C)CCCC1.O=S(=O)([N-]S(=O)(=O)C(F)(F)F)C(F)(F)F | 0.47 ± 0.04 | 0.48 ± 0.04 | 0.49 ± 0.04 | 0.5 ± 0.04 | 0.51 ± 0.04 | 0.52 ± 0.04 |
| CC#N [acetonitrile] + COCC[N+]1(C)CCCC1.O=S(=O)([N-]S(=O)(=O)C(F)(F)F)C(F)(F)F | 0.467 ± 0.036 | 0.469 ± 0.037 | 0.472 ± 0.037 | 0.474 ± 0.037 | 0.477 ± 0.037 | 0.479 ± 0.037 |
| c1ccccc1 [benzene] + COCC[N+]1(C)CCCC1.O=S(=O)([N-]S(=O)(=O)C(F)(F)F)C(F)(F)F | 1.03 ± 0.06 | 1.04 ± 0.07 | 1.06 ± 0.07 | 1.07 ± 0.07 | 1.08 ± 0.07 | 1.09 ± 0.07 |
| CCCCO [butan-1-ol] + COCC[N+]1(C)CCCC1.O=S(=O)([N-]S(=O)(=O)C(F)(F)F)C(F)(F)F | 2.87 ± 0.2 | 2.6 ± 0.2 | 2.35 ± 0.16 | 2.16 ± 0.15 | 1.98 ± 0.13 | 1.84 ± 0.12 |
| CCC(C)O (stereo unspecified) [butan-2-ol] + COCC[N+]1(C)CCCC1.O=S(=O)([N-]S(=O)(=O)C(F)(F)F)C(F)(F)F | 2.4 ± 0.2 | 2.19 ± 0.15 | 2 ± 0.14 | 1.85 ± 0.12 | 1.72 ± 0.12 | 1.61 ± 0.11 |
| CCCC=O [butanal] + COCC[N+]1(C)CCCC1.O=S(=O)([N-]S(=O)(=O)C(F)(F)F)C(F)(F)F | 0.808 ± 0.052 | 0.823 ± 0.053 | 0.838 ± 0.054 | 0.851 ± 0.055 | 0.864 ± 0.055 | 0.876 ± 0.056 |
| C1CCCCCC1 [cycloheptane] + COCC[N+]1(C)CCCC1.O=S(=O)([N-]S(=O)(=O)C(F)(F)F)C(F)(F)F | 15.3 ± 1 | 14.1 ± 1 | 13.1 ± 0.9 | 12.3 ± 0.8 | 11.5 ± 0.8 | 10.8 ± 0.7 |
| C1CCCCC1 [cyclohexane] + COCC[N+]1(C)CCCC1.O=S(=O)([N-]S(=O)(=O)C(F)(F)F)C(F)(F)F | 11.1 ± 0.8 | 10.4 ± 0.7 | 9.69 ± 0.66 | 9.22 ± 0.63 | 8.65 ± 0.59 | 8.23 ± 0.56 |
| C1=CCCCC1 [cyclohexene] + COCC[N+]1(C)CCCC1.O=S(=O)([N-]S(=O)(=O)C(F)(F)F)C(F)(F)F | 6.04 ± 0.41 | 5.82 ± 0.4 | 5.63 ± 0.38 | 5.44 ± 0.37 | 5.27 ± 0.36 | 5.1 ± 0.35 |
| C1CCCCCCC1 [cyclooctane] + COCC[N+]1(C)CCCC1.O=S(=O)([N-]S(=O)(=O)C(F)(F)F)C(F)(F)F | 20.7 ± 1.4 | 19 ± 1.3 | 17.4 ± 1.2 | 16.2 ± 1.1 | 15 ± 1 | 14 ± 1 |
| C1CCCC1 [cyclopentane] + COCC[N+]1(C)CCCC1.O=S(=O)([N-]S(=O)(=O)C(F)(F)F)C(F)(F)F | 7.52 ± 0.51 | 7.19 ± 0.49 | 6.85 ± 0.47 | 6.54 ± 0.45 | 6.26 ± 0.43 | 5.98 ± 0.41 |
